Source: ChEMBL document CHEMBL1201862, “PubChem BioAssay data set” (2004)
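Briefly, cells in 96-well plates were exposed to five compound concentrations for 48 h, and endpoints were estimated by linear interpolation. Abbreviation: GI50, concentration required for 50% inhibition of growth.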 Activity calls are given as the source filed them. Rule as the data show it: active = GI50 up to about 1.1 µM and inactive = higher.

Legend:
Assay in all cases: growth of human tumour cells (NCI), 48 h
M19-MEL = test system: M19-MEL
EKVX = test system: EKVX
NCI-H226 = test system: NCI-H226
OVCAR-5 = test system: OVCAR-5
SK-MEL-28 = test system: SK-MEL-28
SF-295 = test system: SF-295
SK-OV-3 = test system: SK-OV-3
LXFL 529 = test system: LXFL 529
SF-539 = test system: SF-539
RXF 631 = test system: RXF 631
SNB-19 = test system: SNB-19
OVCAR-4 = test system: OVCAR-4
RPMI-8226 = test system: RPMI-8226
M14 = test system: M14
OVCAR-8 = test system: OVCAR-8
NCI-H23 = test system: NCI-H23
HCT-116 = test system: HCT-116
OVCAR-3 = test system: OVCAR-3
NCI-H460 = test system: NCI-H460
DMS-273 = test system: DMS-273
KM12 = test system: KM12
A549 = test system: A549
K562 = test system: K562
DMS-114 = test system: DMS-114
COLO 205 = test system: COLO 205
HCT-15 = test system: HCT-15
IGROV-1 = test system: IGROV-1
SNB-78 = test system: SNB-78
Malme-3M = test system: Malme-3M
UACC-62 = test system: UACC-62
DLD-1 = test system: DLD-1
CCRF-CEM = test system: CCRF-CEM
HCC 2998 = test system: HCC 2998
MOLT-4 = test system: MOLT-4
HOP-62 = test system: HOP-62
HT-29 = test system: HT-29
SW-620 = test system: SW-620
UACC-257 = test system: UACC-257
U-251 = test system: U-251
NCI-H522 = test system: NCI-H522
SN12C = test system: SN12C
SNB-75 = test system: SNB-75
CAKI-1 = test system: CAKI-1
LOX IMVI = test system: LOX IMVI
UO-31 = test system: UO-31
SF-268 = test system: SF-268
786-0 = test system: 786-0
SR = test system: SR
KM-20L2 = test system: KM-20L2
SK-MEL-5 = test system: SK-MEL-5
SK-MEL-2 = test system: SK-MEL-2
A498 = test system: A498
TK-10 = test system: TK-10
HL-60 = test system: HL-60
HOP-18 = test system: HOP-18
HOP-92 = test system: HOP-92
XF498 = test system: XF498
RXF 393 = test system: RXF 393
ACHN = test system: ACHN

`CC1(C)OC(=O)C(C#N)=C1/C=C/c1coc2ccc(Cl)cc2c1=O` was tested, and the GI50 (M19-MEL) was 41.2 µM (inactive), the GI50 (EKVX) was 47 µM (inactive) and the GI50 (NCI-H226) was 29.4 µM (inactive). The GI50 (OVCAR-5) was 45.1 µM (inactive), the GI50 (SK-MEL-28) was 47.5 µM (inactive) and the GI50 (SF-295) was 29.8 µM (inactive). For the same molecule, the GI50 (SK-OV-3) was 19.4 µM (inactive), the GI50 (LXFL 529) was 27.9 µM (inactive) and the GI50 (SF-539) was > 10 µM (inactive). For the same molecule, the GI50 (RXF 631) was 38.8 µM (inactive), the GI50 (SNB-19) was 30.4 µM (inactive) and the GI50 (OVCAR-4) was 24.6 µM (inactive). For the same molecule, the GI50 (RPMI-8226) was 26.9 µM (inactive), the GI50 (M14) was 35.6 µM (inactive) and the GI50 (OVCAR-8) was 25.7 µM (inactive). For the same molecule, the GI50 (NCI-H23) was 21 µM (inactive), the GI50 (HCT-116) was 33 µM (inactive) and the GI50 (OVCAR-3) was 18.4 µM (inactive). The GI50 (NCI-H460) was 18.8 µM (inactive), the GI50 (DMS-273) was 35.1 µM (inactive) and the GI50 (KM12) was 41.3 µM (inactive). The GI50 (A549) was 45.7 µM (inactive), the GI50 (K562) was 27.5 µM (inactive) and the GI50 (DMS-114) was 34.8 µM (inactive). The GI50 (COLO 205) was 57.7 µM (inactive), the GI50 (HCT-15) was 27.4 µM and the GI50 (IGROV-1) was 58.3 µM (inactive). The GI50 (SNB-78) was 33.8 µM (inactive), the GI50 (Malme-3M) was 26.2 µM (inactive) and the GI50 (UACC-62) was 31.7 µM (inactive). The GI50 (DLD-1) was 23.1 µM (inactive), the GI50 (CCRF-CEM) was 17.7 µM (inactive) and the GI50 (HCC 2998) was 34.8 µM (inactive). The GI50 (MOLT-4) was 26.1 µM (inactive), the GI50 (HOP-62) was 23.7 µM (inactive) and the GI50 (HT-29) was > 10 µM (inactive). The GI50 (SW-620) was 39.2 µM (inactive), the GI50 (UACC-257) was 31.3 µM (inactive) and the GI50 (U-251) was 34.4 µM (inactive). The GI50 (NCI-H522) was 74 µM (inactive), the GI50 (SN12C) was 30.1 µM (inactive) and the GI50 (SNB-75) was 14.9 µM (inactive). For the same molecule, the GI50 (CAKI-1) was 10.8 µM (inactive), the GI50 (LOX IMVI) was 18.9 µM (inactive) and the GI50 (UO-31) was 27.1 µM (inactive). The GI50 (SF-268) was 29.5 µM (inactive), the GI50 (786-0) was 37.2 µM (inactive) and the GI50 (SR) was 31.5 µM (inactive). The GI50 (KM-20L2) was 42.2 µM (inactive), the GI50 (SK-MEL-5) was 21.9 µM (inactive) and the GI50 (SK-MEL-2) was 22.1 µM (inactive).

`COC(=O)C1=C(OC)c2cc3c(cc2C(c2cc(OC)c(OC)c(OC)c2)C1C(=O)OC)OCO3` (configuration not stated) was tested, and the GI50 (M19-MEL) was > 100 µM (inactive), the GI50 (EKVX) was > 100 µM (inactive) and the GI50 (NCI-H226) was > 100 µM (inactive). For the same molecule, the GI50 (OVCAR-5) was > 100 µM (inactive), the GI50 (A498) was 43.2 µM (inactive) and the GI50 (SK-MEL-28) was > 100 µM (inactive). For the same molecule, the GI50 (SF-295) was 59.7 µM (inactive), the GI50 (SK-OV-3) was > 100 µM (inactive) and the GI50 (LXFL 529) was > 100 µM (inactive). The GI50 (TK-10) was > 100 µM (inactive), the GI50 (SF-539) was > 100 µM (inactive) and the GI50 (OVCAR-4) was > 100 µM (inactive). For the same molecule, the GI50 (RPMI-8226) was 40.6 µM (inactive), the GI50 (M14) was > 100 µM (inactive) and the GI50 (OVCAR-8) was 79.3 µM (inactive). The GI50 (HL-60) was > 100 µM (inactive), the GI50 (NCI-H23) was > 100 µM (inactive) and the GI50 (HCT-116) was > 100 µM (inactive). The GI50 (OVCAR-3) was > 100 µM (inactive), the GI50 (NCI-H460) was > 100 µM (inactive) and the GI50 (DMS-273) was > 100 µM (inactive). For the same molecule, the GI50 (KM12) was > 100 µM (inactive), the GI50 (A549) was > 100 µM (inactive) and the GI50 (K562) was > 100 µM (inactive). The GI50 (DMS-114) was > 100 µM (inactive), the GI50 (HOP-18) was > 100 µM (inactive) and the GI50 (COLO 205) was 38.7 µM (inactive). For the same molecule, the GI50 (HCT-15) was > 100 µM, the GI50 (IGROV-1) was > 100 µM (inactive) and the GI50 (SNB-78) was > 100 µM (inactive). For the same molecule, the GI50 (Malme-3M) was > 100 µM (inactive), the GI50 (UACC-62) was > 100 µM (inactive) and the GI50 (HOP-92) was 48.9 µM (inactive). For the same molecule, the GI50 (XF498) was > 100 µM (inactive), the GI50 (DLD-1) was > 100 µM (inactive) and the GI50 (CCRF-CEM) was > 100 µM (inactive). The GI50 (RXF 393) was 49 µM (inactive), the GI50 (HCC 2998) was > 100 µM (inactive) and the GI50 (MOLT-4) was 30.5 µM (inactive). The GI50 (HOP-62) was > 100 µM (inactive), the GI50 (HT-29) was > 100 µM (inactive) and the GI50 (SW-620) was > 100 µM (inactive). The GI50 (UACC-257) was > 100 µM (inactive), the GI50 (U-251) was > 100 µM (inactive) and the GI50 (SN12C) was > 100 µM (inactive). For the same molecule, the GI50 (SNB-75) was > 100 µM (inactive), the GI50 (CAKI-1) was > 100 µM (inactive) and the GI50 (LOX IMVI) was > 100 µM (inactive). The GI50 (UO-31) was > 100 µM (inactive), the GI50 (SF-268) was > 100 µM (inactive) and the GI50 (786-0) was > 100 µM (inactive). For the same molecule, the GI50 (SR) was 96.4 µM (inactive), the GI50 (KM-20L2) was > 100 µM (inactive) and the GI50 (SK-MEL-5) was > 100 µM (inactive). For the same molecule, the GI50 (SK-MEL-2) was > 100 µM (inactive) and the GI50 (ACHN) was > 100 µM (inactive).
